Assay results: patent US12370143B2, “Compound or salt thereof and lipid particles” (FUJIFILM Corporation, priority 2018, dated 2025)
Read-outs that look alike come from different tables or passages of the source.

Columns and labels:
[1] = Particle size of nucleic acid lipid particles (Luc2-siRNA); type: physicochemical; conditions: compound/DSPC/cholesterol/DMG-PEG2000 50/10/38.5/1.5
Protocol: By using the dispersion liquid of lipid particles as it was, the particle size of the lipid particles was measured using a zeta potential/particle size measurement system ELS-Z2 (Otsuka Electronics Co., Ltd.).
(§1) The compounds described in Table 2, L-α-distearoylphosphatidylcholine (trade name: COATSOME® MC-8080; NOF corporation), cholesterol (trade name: Choesterol HP; NIPPON FINE CHEMICAL CO., LTD.), and 1,2-dimyristoyl-rac-glycero-3-(methylpolyoxyethylene 2000) (hereinafter, called DMG-PEG2000) (trade name: SUNBRIGHT® GM-020; NOF corporation) were dissolved in ethanol at a molar ratio of 50/10/38.5/1.5 such that the total lipid concentration became 20 mmol/L, thereby obtaining an oil phase.
(§2) An aqueous nucleic acid solution obtained by dissolving 5 mg of Luc2-siRNA having the sequence described in Biomacromolecules (2013) 14, p. 3905 in 1 mL of sterile water was diluted with 10 mmol/L acetate buffer having a pH 4 such that the nucleic acid concentration became 19.7 μmol/L, thereby obtaining a water phase. Then, the water phase and the oil phase were mixed together by a micromixer (see JP5288254B) using a syringe pump such that the volume ratio of water phase:oil phase became 3:1 (final ratio of siRNA/lipid=339 (mol/mol)), and the mixed solution was diluted 2× with PBS, thereby obtaining a dispersion liquid of nucleic acid lipid particles. The dispersion liquid was dialyzed (Slide-A-Lyzer G2, MWCO: 10 kD, Thermo Fisher Scientific) using a phosphate buffered saline such that ethanol was removed, thereby obtaining nucleic acid lipid particles.
The particle size of the nucleic acid lipid particles was measured by the same method as that in <Preparation of lipid particles>.

[2] = Encapsulation rate of siRNA in nucleic acid lipid particles (Luc2-siRNA); type: physicochemical; conditions: compound/DSPC/cholesterol/DMG-PEG2000 50/10/38.5/1.5
Protocol: as §1, §2
A 3 mol/L aqueous sodium acetate solution (30 μL) and 9 μL of glycogen were added to 60 μL of the lipid particles retaining nucleic acids, and then 1.5 mL of ethanol was added thereto such that only the nucleic acids were precipitated while the lipid was dissolved. Then, the supernatant was removed by centrifugation. After the precipitates were air-dried for 15 minutes or longer, water was added thereto such that the precipitates were redissolved, and the concentration thereof was measured using Nanodrop NF1000 (Thermo Fisher Scientific), thereby quantifying the total nucleic acid concentration.
The nucleic acid concentration was quantified using a Quant-iT RiboGreen RNA Assay Kit (Thermo Fisher Scientific) according to the protocol. First, a 20×TE buffer included in the above kit was diluted with water, thereby obtaining a 1×TE buffer. TE represents Tris/EDTA (ethylenediaminetetraacetic acid). In order to quantify only the nucleic acid in the outer water phase, the dispersion liquid of lipid particles retaining nucleic acids was diluted 10,000× with the 1×TE buffer.
The 10,000× diluted dispersion liquid of lipid particles (100 μL) was put in a 96-well plate, then 100 μL of a RiboGreen reagent (reagent included in the Quanti-iT Ribogreen RNA Assay Kit described above) diluted 2000× with the 1×TE buffer was added to a sample, and fluorescence (excitation wavelength: 485 nm, fluorescence wavelength: 535 nm) was measured using a plate reader Infinit EF200 (TECAN), thereby quantifying the nucleic acid concentration in the outer water phase.
By using the total nucleic acid concentration obtained through the above steps and the quantified nucleic acid concentration in the outer water phase, the nucleic acid encapsulation rate of the nucleic acid lipid particles was calculated according to the following Equation. Nucleic acid encapsulation rate (%)=(total nucleic acid concentration−nucleic acid concentration in outer water phase)/total nucleic acid concentration×100 The results are shown in Table 2.

[3] = system: DMS273 cells constantly expressing Luc; assay: Target reporter protein (Luc) knockdown in cell, reporter protein assay; type: cell-based; conditions: Homo sapiens, DMS-273
Protocol: The nucleic acid lipid particles prepared by the same method as that in <Preparation of nucleic acid lipid particles> by using the compounds described in Table 3 were evaluated by reporter assay by the following method.
By using pGL4.50 Luc2 (E1310 Promega), DMS273 cells (human small cell lung cancer) (European Collection of Authenticated Cell Cultures) constantly expressing Luc were prepared. RPMI (Gibco) (10% FBS (Gibco), 1% Penicillin-Streptomycin (Gibco), and 200 μg/mL Hygromycin (Wako)) was used as a culture medium. DMS273 cells (2.0×10^3) constantly expressing luciferase (Luc) were seeded in a 96-well plate and cultured in a 5% CO2 incubator for 24 hours, and then the medium was replaced. Then, 10 μL of each of the dispersion liquids of lipid particles diluted with PBS (Gibco) to yield a concentration of 1 to 1,000 nmol/L was added to the 96-well plate, and the final concentration was adjusted to 0.1 to 100 nmol/L (total amount of liquid: 110 μl). Thereafter, the cells were cultured in a 5% CO2 incubator for 24 hours, the medium was then replaced, and the cells were further cultured for 24 hours.
After the viable cell count was determined, the expression amount of Luc was quantified using a Steady Glo assay kit (Promega), and the knockdown efficiency was calculated according to the following equation. Then, the IC50 concentration at which the expression amount of Luc was knocked down to 50% was calculated.

[4] = Luc2-siRNA lipid particles using the compound, siRNA 0.1 to 100 nmol/L, concentration at which Luc expression is knocked down to 50%, read-out: IC50

Structure (SMILES) | Particle size (nm) [1] [nm] | Nucleic acid encapsulation rate [2] [%] | IC50 [3, 4] [nM] | IC50 [3] [nM]
CCCCC/C=C\C/C=C\CCCCCCCCC(CCCCCCCC/C=C\C/C=C\CCCCC)OC(=O)OCCN(C)C [Comparative Example 4, 2-(Dimethylamino)ethyl((6Z,9Z,28Z,31Z)-heptatriaconta-6,9,28,31-tetraen-19-yl)carbonate, reference compound] | 62.8 | 77 |  | > 100
CCCCC/C=C\C/C=C\CCCCCCCCN(CCCCCCCC/C=C\C/C=C\CCCCC)C(=O)OC1CCN(CCN(C)C)CC1 [Example 3, 1-(2-(Dimethylamino)ethyl)piperidin-4-yl di((9Z,12Z)-octadeca-9,12-dien-1-yl)carbamate] | 83.6 | 100 | 43 | 
CCCCC/C=C\C/C=C\CCCCCCCCN(CCCCCCCC/C=C\C/C=C\CCCCC)C(=O)OC1CCCN(CCN(C)C)C1 (stereo not drawn) [Example 4, 1-(2-(Dimethylamino)ethyl)piperidin-3-yl di((9Z,12Z)-octadeca-9,12-dien-1-yl)carbamate] | 66.1 | 81 | 10 | 
CCCCC/C=C\C/C=C\CCCCCCCCC(CCCCCCCC/C=C\C/C=C\CCCCC)OC(=O)OCCN(CCN(C)C)C(C)C [Example 25, 2-((2-(Dimethylamino)ethyl)(isopropyl)amino)ethyl((6Z,9Z,28Z,31Z)-heptatriaconta-6,9,28,31-tetraen-19-yl)carbonate] | 68.5 | 76 | 16 | 
CCCCC/C=C\C/C=C\CCCCCCCCC(CCCCCCCC/C=C\C/C=C\CCCCC)OC(=O)OCCN(C)CCN [Example 26] | 209.8 | 97 | 30 | 
CCCCC/C=C\C/C=C\CCCCCCCC(CCCCCCCCCC)OC(=O)OCCN(C)CCN(C)C (stereo not drawn) [Example 29, 2-((2-(Dimethylamino)ethyl)(methyl)amino)ethyl((19Z,22Z)-octacosa-19,22-dien-11-yl)carbonate] | 70.1 | 77 | 19 | 
CCCCC/C=C\C/C=C\CCCCCCCC(CCCCCCCCCC)OC(=O)OCCN(CC)CCN(C)C (stereo not drawn) [Example 33, 2-((2-(Dimethylamino)ethyl)(ethyl)amino)ethyl((19Z,22Z)-octacosa-19,22-dien-11-yl)carbonate] | 67.9 | 87 | 12 | 
CCCCC/C=C\C/C=C\CCCCCCCCC(CCCCCCCC/C=C\C/C=C\CCCCC)OC(=O)OCCN(CCCCCCCCCCCC)CCN(C)C [Example 53] | 81 | 78 | 9 | 
CCCCCCC(CCCC)COC(=O)CCCCCCCCC(CCCCCC)OC(=O)OCCN(CCN(CC)CC)C(C)C (stereo not drawn) [Example 84, 2-butyloctyl 3-ethyl-12-hexyl-6-isopropyl-10-oxo-9,11-dioxa-3,6-diazahenicosan-21-oate] | 81 | 79 | 30 | 
CCCCCCC(CCCC)COC(=O)CCCC(CCCCCC)OC(=O)OCCN(CCO)CCN(CC)CC (stereo not drawn) [Example 101, 2-Butyloctyl 3-ethyl-12-hexyl-6-(2-hydroxyethyl)-10-oxo-9,11-dioxa-3,6-diazahexadecan-16-oate] | 177.3 | 68 | 39 | 
CCCCCCCCC(CCCCCC)COC(=O)CCCC(CCCCCC)OC(=O)OCCN(CCO)CCN(CC)CC (stereo not drawn) [Example 102, 2-Hexyldecyl 3-ethyl-12-hexyl-6-(2-hydroxyethyl)-10-oxo-9,11-dioxa-3,6-diazahexadecan-16-oate] | 147.2 | 70 | 27 | 

Now from value to compound, other results behind:

Particle size (nm) [1] [nm] | Nucleic acid encapsulation rate [2] [%] | IC50 [3, 4] [nM] | Structure (SMILES) | IC50 [3] [nM]
75.1 | 87 | > 100 | CCCCC/C=C\C/C=C\CCCCCCCCN(CCCCCCCC/C=C\C/C=C\CCCCC)C(=O)OCCN1CCN(C)CC1 [Comparative Example 5, 2-(4-Methylpiperazin-1-yl)ethyl di((9Z,12Z)-octadeca-9,12-dien-1-yl)carbamate, reference compound] | 
81.9 | 89 | > 100 | CCCCC/C=C\C/C=C\CCCCCCCCN(CCCCCCCC/C=C\C/C=C\CCCCC)C(=O)CN(C)CCN(C)C [Comparative Example 6, 2-((2-(dimethylamino)ethyl)(methyl)amino)-N,N-di((9Z,12Z)-octadeca-9,12-dien-1-yl)acetamide, reference compound] | 
71.9 | 87 | > 100 | CCCCC/C=C\C/C=C\CCCCCCCCN(CCCCCCCC/C=C\C/C=C\CCCCC)C(=O)CCN(C)CCN(C)C [Comparative Example 7, 3-((2-(dimethylamino)ethyl)(methyl)amino)-N,N-di((9Z,12Z)-octadeca-9,12-dien-1-yl)propanamide, reference compound] | 
98.6 | 84 | 14 | CCCCC/C=C\C/C=C\CCCCCCCCN(CCCCCCCC/C=C\C/C=C\CCCCC)C(=O)OCCN(C)CCN(CC)CC [Example 7, 2-((2-(Diethylamino)ethyl)(methyl)amino)ethyl di((9Z,12Z)-octadeca-9,12-dien-1-yl)carbamate] | 
101.6 | 84 | 15 | CCCCC/C=C\C/C=C\CCCCCCCCC(CCCCCCCC/C=C\C/C=C\CCCCC)OC(=O)OCCN(C)CCN(C)C [Example 20, 2-((2-(dimethylamino)ethyl)(methyl)amino)ethyl((6Z,9Z,28Z,31Z)-heptatriaconta-6,9,28,31-tetraen-19-yl)carbonate] | 
75.2 | 75 | 31 | CCCCC/C=C\C/C=C\CCCCCCCCC(CCCCCCCC/C=C\C/C=C\CCCCC)OC(=O)OCCN(C)CCN(C)CCO [Example 27, (6Z,9Z,28Z,31Z)-heptatriaconta-6,9,28,31-tetraen-19-yl(2-((2-((2-hydroxyethyl)(methyl)amino)ethyl)(methyl)amino)ethyl)carbonate] | 
